Measurements taken from the NIST ThermoML archive (doi:10.1021/acs.jced.7b00836).
Numbers after ± are expanded uncertainties.

Conditions: Liquid, Closed cell (Static) method

Row | vapor or sublimation pressure (288.24 K) [kPa] | vapor or sublimation pressure (296.23 K) [kPa] | vapor or sublimation pressure (288.25 K) [kPa] | vapor or sublimation pressure (296.24 K) [kPa] | Structure (SMILES)
1 | 17 ± 4 | 21 ± 4 |  |  | CCCCCC [hexane]
2 |  |  | 48 ± 4 | 66 ± 4 | CCCCC [pentane]
